ChEMBL document CHEMBL4406802, “Human disorders associated with inflammation and the evolving role of natural products to overcome” (Eur J Med Chem, 2019)
Values after ≈ are worked out from the molar mass of the structure shown. Values belong to the molecule of their own block, whether it stands above or below them.

Key:
BV-2 = test: Antiinflammatory activity in mouse BV2 cells assessed as inhibition of LPS-induced nitric oxide production at 10 uM relative to control; format: functional
RAW264.7 [1] = test: Antiinflammatory activity in mouse RAW264.7 cells assessed as inhibition of LPS-induced nitric oxide production after 24 hrs; format: functional, cell-based; conditions: RAW264.7, 24 h
RAW264.7 [2] = test: Antiinflammatory activity in mouse RAW264.7 cells assessed as inhibition of LPS-induced nitric oxide production at […] after 24 hrs by Griess reagent based assay relative to control; format: functional; set-up: dose or concentration left out as unconfirmed; conditions: RAW264.7, 24 h
[3] = Inhibition of soybean 15-LOX using linoleic acid as substrate preincubated for 5 mins followed by substrate addition and measured after 20 mins by spectrophotometric analysis; set-up: species or system Glycine max
[4] = target: T1, Prostaglandin G/H synthase 1 (Ovis aries, UniProt P05979); test: Inhibition of ovine COX1
T1 sequence (P05979 whole entry): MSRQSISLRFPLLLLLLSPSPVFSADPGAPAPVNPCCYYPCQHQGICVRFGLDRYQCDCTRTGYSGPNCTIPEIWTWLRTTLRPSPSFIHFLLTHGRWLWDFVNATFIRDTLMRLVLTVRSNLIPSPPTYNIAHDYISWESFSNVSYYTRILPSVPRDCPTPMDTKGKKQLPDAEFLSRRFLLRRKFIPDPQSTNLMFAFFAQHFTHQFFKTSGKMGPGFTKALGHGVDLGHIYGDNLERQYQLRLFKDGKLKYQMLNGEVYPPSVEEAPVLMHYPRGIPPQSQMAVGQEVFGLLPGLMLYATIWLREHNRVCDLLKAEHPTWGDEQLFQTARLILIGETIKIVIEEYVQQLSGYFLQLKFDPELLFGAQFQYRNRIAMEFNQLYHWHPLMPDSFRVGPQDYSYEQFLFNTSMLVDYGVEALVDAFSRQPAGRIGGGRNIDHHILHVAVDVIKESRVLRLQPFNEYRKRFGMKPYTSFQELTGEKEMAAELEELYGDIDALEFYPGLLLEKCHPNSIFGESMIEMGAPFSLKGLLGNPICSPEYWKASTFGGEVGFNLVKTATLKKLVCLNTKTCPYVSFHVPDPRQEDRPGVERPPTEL

RAW264.7 [5] = test: Antiinflammatory activity against mouse RAW264.7 cells assessed as inhibition of LPS induced iNOS at 30 uM preincubated for 1 hr followed by LPS stimulation measured after 18 hrs relative to control; format: functional
RAW264.7 [6] = test: Antiinflammatory activity against mouse RAW264.7 cells assessed as inhibition of LPS induced COX2 at 30 uM preincubated for 1 hr followed by LPS stimulation measured after 18 hrs relative to control; format: functional
[7] = target: Prostaglandin G/H synthase 2 (Homo sapiens) (UniProt P35354); test: Inhibition of COX2 (unknown origin) at 0.01 mM using arachidonic acid as substrate preincubated for 15 mins followed by arachidonic acid addition measured after […] by ELISA relative to control
[8] = target: Nitric oxide synthase, inducible (Homo sapiens, UniProt P35228); test: Inhibition of iNOS (unknown origin) at 20 uM relative to control
Sequence of Nitric oxide synthase, inducible (P35228 whole entry): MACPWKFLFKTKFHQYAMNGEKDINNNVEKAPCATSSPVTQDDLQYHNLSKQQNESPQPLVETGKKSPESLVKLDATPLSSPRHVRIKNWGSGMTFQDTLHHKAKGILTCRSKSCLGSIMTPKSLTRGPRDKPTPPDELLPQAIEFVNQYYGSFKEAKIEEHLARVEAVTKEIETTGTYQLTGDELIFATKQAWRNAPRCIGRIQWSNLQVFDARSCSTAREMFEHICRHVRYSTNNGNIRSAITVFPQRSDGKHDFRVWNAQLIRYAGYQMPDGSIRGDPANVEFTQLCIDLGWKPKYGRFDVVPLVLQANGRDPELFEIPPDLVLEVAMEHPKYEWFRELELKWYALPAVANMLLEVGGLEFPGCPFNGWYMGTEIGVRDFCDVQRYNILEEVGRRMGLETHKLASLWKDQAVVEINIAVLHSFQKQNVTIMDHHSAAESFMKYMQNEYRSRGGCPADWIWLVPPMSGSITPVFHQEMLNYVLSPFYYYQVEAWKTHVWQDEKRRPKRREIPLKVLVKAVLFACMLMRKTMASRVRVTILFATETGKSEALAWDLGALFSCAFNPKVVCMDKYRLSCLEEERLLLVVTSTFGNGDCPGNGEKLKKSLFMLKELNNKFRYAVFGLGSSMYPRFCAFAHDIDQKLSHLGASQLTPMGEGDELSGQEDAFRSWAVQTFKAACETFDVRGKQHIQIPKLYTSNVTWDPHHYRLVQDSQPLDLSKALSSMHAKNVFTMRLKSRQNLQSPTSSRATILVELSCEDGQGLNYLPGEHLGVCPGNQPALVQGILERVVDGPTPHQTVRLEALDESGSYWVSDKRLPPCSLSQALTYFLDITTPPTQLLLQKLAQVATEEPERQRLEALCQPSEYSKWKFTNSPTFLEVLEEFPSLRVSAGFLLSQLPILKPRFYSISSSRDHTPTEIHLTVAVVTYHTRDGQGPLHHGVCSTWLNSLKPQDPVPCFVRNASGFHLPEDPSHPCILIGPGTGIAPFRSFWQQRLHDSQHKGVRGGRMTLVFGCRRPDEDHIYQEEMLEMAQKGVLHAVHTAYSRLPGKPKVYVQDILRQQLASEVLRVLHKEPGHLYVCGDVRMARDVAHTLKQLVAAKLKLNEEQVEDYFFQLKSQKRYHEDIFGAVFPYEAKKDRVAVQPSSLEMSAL

[9] = target: T2, Prostaglandin G/H synthase 2 (Homo sapiens) (UniProt P35354); test: Inhibition of COX2 (unknown origin) at […] using arachidonic acid as substrate preincubated for 15 mins followed by arachidonic acid addition measured after 2 mins by ELISA relative to control
T2 sequence (whole entry): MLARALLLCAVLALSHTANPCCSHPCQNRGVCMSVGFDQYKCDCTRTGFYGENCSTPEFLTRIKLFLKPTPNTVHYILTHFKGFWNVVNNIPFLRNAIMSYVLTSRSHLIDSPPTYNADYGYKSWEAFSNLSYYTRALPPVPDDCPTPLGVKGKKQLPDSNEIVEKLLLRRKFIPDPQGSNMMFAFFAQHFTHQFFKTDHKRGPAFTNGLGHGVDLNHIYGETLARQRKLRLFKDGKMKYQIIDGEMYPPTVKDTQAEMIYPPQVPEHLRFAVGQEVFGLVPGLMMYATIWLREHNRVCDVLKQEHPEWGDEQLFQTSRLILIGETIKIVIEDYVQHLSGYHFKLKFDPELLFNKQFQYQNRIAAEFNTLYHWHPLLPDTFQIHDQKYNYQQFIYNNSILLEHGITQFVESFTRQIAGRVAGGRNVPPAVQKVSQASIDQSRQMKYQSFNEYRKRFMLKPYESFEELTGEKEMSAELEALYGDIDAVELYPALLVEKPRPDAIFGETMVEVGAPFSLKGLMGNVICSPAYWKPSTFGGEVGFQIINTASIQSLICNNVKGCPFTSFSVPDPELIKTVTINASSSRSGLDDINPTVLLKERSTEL

RAW264.7 [10] = test: Cytotoxicity against mouse RAW264.7 cells assessed as cell viability after 24 hrs by MTT assay relative to control; format: functional
RAW264.7 [11] = test: Antiinflammatory activity in mouse RAW264.7 cells assessed as inhibition of LPS-induced nitric oxide production after 24 hrs by Griess reagent based assay relative to control; format: functional, cell-based; conditions: RAW264.7, 24 h
[12] = target: T2, Prostaglandin G/H synthase 2 (Homo sapiens); test: Inhibition of N-terminal His6-tagged recombinant human COX2 expressed in baculovirus infected sf21 cells at 20 uM relative to control
[13] = target: T2, Prostaglandin G/H synthase 2 (Homo sapiens); test: Inhibition of COX2 (unknown origin) at 20 uM relative to control
[14] = target: T3, Polyunsaturated fatty acid 5-lipoxygenase (Homo sapiens) (UniProt P09917); test: Inhibition of 5-lox (unknown origin) at 20 uM relative to control
T3 sequence (whole entry): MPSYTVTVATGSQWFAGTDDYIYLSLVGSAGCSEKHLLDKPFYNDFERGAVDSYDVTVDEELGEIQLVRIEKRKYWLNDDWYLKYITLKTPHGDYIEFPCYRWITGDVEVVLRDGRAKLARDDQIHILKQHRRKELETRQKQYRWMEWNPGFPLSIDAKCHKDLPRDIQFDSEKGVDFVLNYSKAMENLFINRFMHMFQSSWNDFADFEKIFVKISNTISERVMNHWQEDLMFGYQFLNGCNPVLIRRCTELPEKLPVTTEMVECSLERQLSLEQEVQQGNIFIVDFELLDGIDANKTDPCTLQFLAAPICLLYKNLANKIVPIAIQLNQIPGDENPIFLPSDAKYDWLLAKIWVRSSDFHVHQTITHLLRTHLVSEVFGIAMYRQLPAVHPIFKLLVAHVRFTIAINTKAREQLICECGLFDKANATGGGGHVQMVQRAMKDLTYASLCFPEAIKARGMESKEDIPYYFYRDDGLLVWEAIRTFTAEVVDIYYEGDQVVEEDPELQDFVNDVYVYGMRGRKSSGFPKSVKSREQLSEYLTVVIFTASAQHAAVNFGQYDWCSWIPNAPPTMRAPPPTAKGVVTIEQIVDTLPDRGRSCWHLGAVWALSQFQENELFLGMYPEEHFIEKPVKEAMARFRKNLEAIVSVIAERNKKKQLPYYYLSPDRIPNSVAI

THP-1 [15] = test: Antiinflammatory activity against human THP1 cells assessed as inhibition of LPS induced TNF-alpha at 100 uM preincubated for 30 mins followed by LPS stimulation measured after 24 hrs by ELISA relative to control; format: functional
THP-1 [16] = test: Antiinflammatory activity against human THP1 cells assessed as inhibition of LPS induced TNF-alpha at 40 uM preincubated for 30 mins followed by LPS stimulation measured after 24 hrs by ELISA relative to control; format: functional

SMILES: COc1cc(CC2C(=O)OCC2C(O)c2ccc(OC)c(OC)c2)ccc1O (stereo not given)
- inhibition at 10 µM (BV-2): 63.3%

SMILES: C=CC(C)(CCC=C(C)C)c1c(O)cc2c(c1O)C(=O)C[C@@H](c1ccc(O)c(O)c1)O2 (stereo not given in full)
- IC50 (RAW264.7 [1]): 3.32 µM

SMILES: O=c1c2cc(O)c(O)cc2oc2cc(O)cc(O)c12
- inhibition (RAW264.7 [2]): 70.8%
- IC50 [3]: 0.04461 µg/mL (≈ 0.171 µM)

SMILES: COc1ccc(CC2COC(=O)C2Cc2cc(C(=O)O)oc(=O)c2)cc1OC (stereo not given)
- inhibition at 10 µM (BV-2): 75.5%

SMILES: O=C(/C=C/c1ccc(O)c(O)c1)OC(C(=O)O)C(OC(=O)/C=C/c1ccc(O)c(O)c1)C(OC(=O)/C=C/c1ccc(O)c(O)c1)C(OC(=O)/C=C/c1ccc(O)c(O)c1)C(=O)O (stereo not given)
- IC50 [4]: 2.09 µM

SMILES: C=C1CC[C@]2(C(=O)O[C@@H]3O[C@H](CO)[C@@H](O)[C@H](O)[C@H]3O)CC[C@]3(C)C(=CC[C@@H]4[C@@]5(C)CC[C@H](O[C@@H]6OC[C@@H](O)[C@H](O)[C@H]6O[C@@H]6O[C@H](CO)[C@@H](O)[C@H](O)[C@H]6O)C(C)(C)[C@@H]5CC[C@]43C)[C@@H]2[C@H]1C
- inhibition at 30 µM (RAW264.7 [5]): 75.9%
- inhibition at 30 µM (RAW264.7 [6]): 40.9%

SMILES: COc1cc(/C=C/C(=O)CC(=O)/C=C/c2ccc(O)c(OC)c2)ccc1O [CURCUMIN]
- inhibition at 10 µM (BV-2): 53%

SMILES: C[C@@H]1O[C@@H](O[C@H]2[C@H](O[C@H]3[C@H](O[C@H]4CC[C@@]5(C)[C@@H](CC[C@]6(C)[C@@H]5CC=C5[C@@H]7C[C@]8(C)C[C@@H](OC8=O)[C@]7(C)CC[C@]56C)[C@@]4(C)CO)O[C@H](C(=O)O)[C@@H](O)[C@@H]3O)OC[C@@H](O)[C@@H]2O)[C@H](O)[C@H](O)[C@H]1O
- Activity (RAW264.7 [10]): 97.6%
- IC50 (RAW264.7 [11]): 18.8 µM

SMILES: COc1cc(CC2C(=O)OCC2Cc2cc(OC)c(O)c(C(CO)CO)c2)ccc1OC1O[C@H](CO)[C@@H](O)[C@H](O)[C@H]1O (stereo not given in full)
- inhibition at 10 µM (BV-2): 71.6%

SMILES: C[C@@H]1O[C@@H](Oc2c(-c3cc(O)c(O)c(O)c3)oc3cc(O)cc(O)c3c2=O)[C@H](O)[C@H](O)[C@H]1O
- inhibition at 100 µM (THP-1 [15]): 19.5%

SMILES: COc1c(O)cc2c(=O)oc3c(OC)c(O[C@@H]4O[C@H](CO)[C@@H](O)[C@H](O)[C@H]4O)cc4c(=O)oc1c2c34
- inhibition at 40 µM (THP-1 [16]): 47.8%

SMILES: COc1ccc(C(O)C2COC(=O)C2Cc2ccc(OC3O[C@H](CO)[C@@H](O)[C@H](O)[C@H]3O)c(OC)c2)cc1OC (stereo not given in full)
- inhibition at 10 µM (BV-2): 87.8%

SMILES: O=C(OC1Cc2c(O)cc(O)cc2OC1c1cc(O)c(O)c(O)c1)c1cc(O)c(O)c(O)c1 (stereo not given)
- inhibition at 40 µM (THP-1 [16]): 39.1%

SMILES: CC1(C)CC[C@]2(C(=O)O[C@@H]3O[C@H](CO)[C@@H](O)[C@H](O)[C@H]3O)CC[C@]3(C)C(=CC[C@@H]4[C@@]5(C)CC[C@H](O[C@@H]6OC[C@@H](O)[C@H](O)[C@H]6O[C@@H]6O[C@H](CO)[C@@H](O)[C@H](O)[C@H]6O)C(C)(C)[C@@H]5CC[C@]43C)[C@@H]2C1
- inhibition at 30 µM (RAW264.7 [5]): 88%
- inhibition at 30 µM (RAW264.7 [6]): 54.6%

Continued, in another order:

- inhibition [7]: 83.3%
SMILES: CC1(C)NC(CCc2ccc(O)cc2)CC(=O)C1Cc1ccc(O)cc1 (stereo not given)

- inhibition [8]: 49.1%
SMILES: COc1cc(C2OCC3C(c4ccc(O)c(OC)c4)OCC23)ccc1O (stereo not given)

- inhibition [9]: 98.4%
SMILES: O=C(/C=C/CCc1ccc(O)cc1)CCc1ccc(O)cc1

- IC50 (RAW264.7 [11]): 16.1 µM
SMILES: C[C@@H]1O[C@@H](O[C@H]2[C@H](O[C@H]3[C@H](O[C@H]4CC[C@@]5(C)[C@@H](CC[C@]6(C)[C@@H]5CC=C5[C@@H]7C[C@]8(C)C[C@@H](OC8=O)[C@]7(C)CC[C@]56C)[C@@]4(C)CO)O[C@H](C(=O)O)[C@@H](O)[C@@H]3O)O[C@H](CO)[C@H](O)[C@@H]2OC=O)[C@H](O)[C@H](O)[C@H]1O
- Activity (RAW264.7 [10]): 95.2%

- inhibition [8]: 99.4%
- inhibition [12]: 97%
SMILES: C=C1[C@@H]2[C@H]3OC(=O)C(=C)[C@@H]3CCC(=C)[C@@H]2C[C@@H]1O

- inhibition [8]: 100%
- inhibition [12]: 98.6%
SMILES: C=C1C(=O)O[C@@H]2[C@H]3[C@@H](C)C(=O)C[C@H]3C(=C)CC[C@@H]12

- IC50 (RAW264.7 [11]): 13.2 µM
SMILES: C[C@@H]1[C@H](O)CC[C@]2(C(=O)O)CC[C@]3(C)C(CC[C@@H]4[C@@]5(C)CC[C@H](O[C@@H]6O[C@H](C(=O)O)[C@@H](O)[C@H](O)[C@H]6O[C@@H]6O[C@H](CO)[C@H](O)[C@H](O)[C@H]6O[C@@H]6O[C@@H](C)[C@H](O)[C@@H](O)[C@H]6O)C(C)(C)[C@@H]5CC[C@]43C)[C@H]12 (stereo not given in full)
- Activity (RAW264.7 [10]): 96.8%

- inhibition [13]: 16.6%
SMILES: CCCCCC(=O)/C=C/C=C\CCCCCCCC(=O)O

- inhibition [14]: 16.1%
SMILES: COc1cc(C2Oc3cc(/C=C/COC(=O)CC(C)C)cc(OC)c3OC2COC(=O)CC(C)C)cc(OC)c1O (stereo not given)

- IC50 [3]: 0.04305 µg/mL (≈ 0.0714 µM)
SMILES: C=C(C)[C@H](CC=C(C)C)C[C@]12C[C@H](CC=C(C)C)C(C)(C)[C@](CC=C(C)C)(C(=O)C(C(=O)c3ccc(O)c(O)c3)=C1O)C2=O

- IC50 [4]: 5.87 µM
SMILES: O=C(/C=C/c1ccc(O)c(O)c1)OC1CC(O)(C(=O)O)CC(O)C1OC(=O)/C=C/c1ccc(O)c(O)c1 (stereo not given)

- IC50 [4]: 4.96 µM
SMILES: O=C(/C=C/c1ccc(O)c(O)c1)OC1CC(O)(C(=O)O)CC(OC(=O)/C=C/c2ccc(O)c(O)c2)C1O (stereo not given)

- inhibition [14]: 28.5%
SMILES: COc1cc(C2OCC3C(c4cc(OC)c(O)c(OC)c4)OCC23)cc(OC)c1O (stereo not given)
